The structures appear in SMILES notation. Several values for one entry are separate records, joined by “and”; a condition that tells them apart may be missing. Equal values may be shown once. Activity calls are given as the source filed them.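 Rule for the calls: active = fitted dose curve reaches 40% lysis signal rise at or below the highest valid concentration tested for that sample; inconclusive = flat fit between 30% and 70%, or poor curve fit; inactive = signal falls, stays flat within 30%, or no crossing.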

This test relates to C. neoformans lysis, adenylate kinase release luminescence, 4 h. Put plainly: C. neoformans lysis by adenylate kinase leakage – AK release luminescence, cherry-picks, dose response (AID 687000).
For `COC(=O)C1=C(C)N(Cc2ccc(F)cc2)C(=S)NC1c1cccc(F)c1` (stereo unspecified), the AC40 was 14.2 µM and 2.63 µM. As for `C[C@H](CO)N1C[C@H](C)[C@H](CN(C)Cc2ccccc2)OCCCC[C@H](C)Oc2ccc(NS(=O)(=O)c3cccs3)cc2C1=O`, the AC40 is > 15 µM (inactive). The figure for `COCCN1C(=S)N[C@@H](c2ccccc2)C(C(=O)OC)=C1C` is 13.5 µM; for `COC(=O)C1=C(C)N(Cc2ccc(Cl)cc2)C(=S)NC1c1ccc(OC)cc1` (stereo unspecified) it is 11.8 µM. The result for `C[C@H](O)C#Cc1ccc2c(c1)O[C@H](CN(C)Cc1ccncc1)[C@H](C)CN([C@H](C)CO)S2(=O)=O` reads > 15 µM (inactive). The result for `CCOc1ccc(CNC(=S)NCc2ccc(OCC)cc2)cc1` reads > 15 µM (inactive); that for `C[C@H](CO)N1C[C@H](C)[C@@H](CN(C)Cc2ccc(-c3ccccc3)cc2)Oc2ccc(NC(=O)Nc3ccc(C(F)(F)F)cc3)cc2C1=O`, > 15 µM (inactive).

`O=C(NC(=S)Nc1cccc(F)c1)c1cccc([N+](=O)[O-])c1`: the AC40 was 3.02 µM. As to `O=C(NC(=S)Nc1ccccc1N1CCCC1)c1ccccc1[N+](=O)[O-]`, the AC40 is > 15 µM (inactive). The figure for `COC(=O)C1=C(C)N(Cc2ccc(F)cc2)C(=S)NC1c1ccc(Cl)cc1` (stereo unspecified) is > 15 µM (inactive); for `O=C(NC1CCCCC1)N[C@H]1C=C[C@@H](CC(=O)N2CCOCC2)O[C@@H]1CO` it is > 15 µM (inactive); for `C[C@@H]1CN([C@@H](C)CO)C(=O)CCCn2nncc2CO[C@H]1CN(C)C(=O)Oc1cccc2ccccc12` it is > 15 µM (inactive). The figure for `C[C@H]1CN([C@@H](C)CO)S(=O)(=O)c2ccc(Br)cc2O[C@@H]1CN(C)C(=O)CCN1CCCCC1` is > 15 µM (inactive); for `COc1cccc(C(=O)NC(=S)Nc2ccccc2N2CCOCC2)c1` it is > 15 µM (inactive); for `COCC(=O)Nc1ccc2c(c1)C(=O)N(C)C[C@H](OC)[C@@H](C)CN(C(=O)c1ccccc1)[C@@H](C)CO2` it is > 15 µM (inactive). The result for `O=C(CN(c1ccc(F)cc1)S(=O)(=O)c1ccccc1)N1CCOCC1` reads > 15 µM (inactive); that for `Cc1ccc(OCCn2c(=S)[nH]c3ccccc32)c(C(C)C)c1`, 0.883 µM; that for `COc1ccc(N2CCN(C(=O)Cc3cccs3)CC2)cc1`, > 15 µM (inactive). For the molecule `COC(=O)C1=C(C)N(Cc2ccccc2)C(=S)N[C@H]1c1cccc(F)c1`, the AC40 is 11.7 µM. The figure for `Fc1ccccc1NC(=S)NN(Cc1ccccc1)c1ccccc1` is 5.17 µM; for `C[C@@H]1CCCCO[C@H](CN(C)S(=O)(=O)c2cccs2)[C@@H](C)CN([C@@H](C)CO)C(=O)c2cc(NC(=O)CCC(F)(F)F)ccc2O1` it is > 15 µM (inactive); for `NC(=S)N/N=C/c1ccc(-c2cc(Cl)ccc2Cl)o1` it is 0.644 µM. The result for `N#Cc1ccc(C23CC4(C2)[C@H](CN(Cc2ccc(C(F)(F)F)cc2)[C@@H]4c2ccccc2)C3c2ccc(C(F)(F)F)cc2)cc1` (stereo partly specified) reads > 15 µM (inactive); that for `COc1ccccc1/C=N/NC(=S)NCc1ccco1`, > 15 µM (inactive). Regarding `Cc1ccc(NC(=O)N2CCCC2C(=O)Nc2c(C)cc(C)cc2C)cc1` (stereo unspecified), the AC40 was > 15 µM (inactive). The figure for `CC(C)CC1(C)N=C(c2ccccc2)C(=S)N1` (stereo unspecified) is 11.2 µM; for `COc1ccc(NC(=S)NCc2ccc(Cl)cc2)c(OC)c1` it is 4.16 µM. The figure for `Cc1cccc(C)c1NC(=O)C1CCCN1C(=O)NCc1ccccc1` (stereo unspecified) is > 15 µM (inactive); for `C[C@@H]1CN([C@H](C)CO)C(=O)c2cc(C3=CCCCC3)cnc2O[C@H]1CN(C)C(=O)Cc1cccnc1` it is > 15 µM (inactive).

In the case of `C[C@H]1CN([C@@H](C)CO)C(=O)c2ccccc2-c2ccccc2CO[C@H]1CN(C)S(=O)(=O)c1cccc(C#N)c1`, the AC40 is > 15 µM (inactive).

For the molecule `COC(=O)C1=C(C)N(CC(C)C)C(=S)NC1c1cccc(F)c1` (stereo unspecified), the AC40 is > 15 µM (inactive) and 3.43 µM. Regarding `COC(=O)C1=C(C)N(Cc2ccc(F)cc2)C(=S)NC1c1ccc(F)cc1` (stereo unspecified), the AC40 was 6.96 µM. The result for `Cc1noc(C)c1S(=O)(=O)Nc1ccc2c(c1)CC(=O)N([C@H](C)CO)C[C@H](C)[C@H](CN(C)S(=O)(=O)c1cccs1)O2` reads > 15 µM (inactive); that for `Cc1noc(C)c1S(=O)(=O)Nc1ccc2c(c1)CC(=O)N([C@H](C)CO)C[C@H](C)[C@@H](CN(C)S(=O)(=O)c1cn(C)cn1)O2`, > 15 µM (inactive).

`C[C@@H]1CCCCO[C@H](CN(C)C(=O)CCCN(C)C)[C@@H](C)CN([C@H](C)CO)C(=O)c2cc(NC(=O)Cc3ccccc3)ccc2O1`: the AC40 is > 15 µM (inactive). On to `CCCN1C[C@H](C)[C@@H](OC)CN(C)C(=O)c2cc(NC(=O)c3cccc(F)c3)ccc2OC[C@@H]1C`, for which the AC40 is > 15 µM (inactive). The result for `C[C@@H]1CN([C@H](C)CO)C(=O)Cc2cc(NC(=O)NC3CCCCC3)ccc2O[C@@H]1CN(C)Cc1ccccc1` reads > 15 µM (inactive); that for `COC(=O)C1=C(C)N(Cc2ccc(Br)cc2)C(=S)NC1c1cccc(Cl)c1` (stereo unspecified), 1.17 µM; that for `C[C@H](CO)N1C[C@H](C)[C@@H](CN(C)C(=O)c2ccncc2)OCCCC[C@H](C)Oc2ccc(NC(=O)Cc3ccccc3)cc2C1=O`, > 15 µM (inactive). Consider `CCc1ccc(C(=O)NC(=S)NCc2cccnc2)cc1`, for which the AC40 is 8.42 µM. The result for `Cc1cccc(C)c1NC(=O)CN(C)C(=O)C1CCCCC1` reads > 15 µM (inactive); that for `CCCNC(=O)C[C@@H]1CC[C@@H]2[C@H](COc3ccc(NC(=O)CCC)cc3C(=O)N2C)O1`, > 15 µM (inactive). In the case of `CO[C@H]1CN(C)C(=O)c2cc(NC(=O)C3CC3)ccc2OC[C@@H](C)N(Cc2cncnc2)C[C@H]1C`, the AC40 is 12.9 µM. The result for `COc1cccc(NC(=S)N2CCC(Cc3ccccc3)CC2)c1` reads 3.35 µM; that for `CC=Cc1ccc2n(c1=O)C[C@@H]1[C@@H](CO)[C@H](C(=O)N3CCc4ccccc4C3)N(C(=O)C3CC3)[C@H]21` (mixture of isomers), > 15 µM (inactive). With `COC(=O)C1=C(C)N(Cc2ccc(Br)cc2)C(=S)NC1c1ccc(F)cc1` (stereo unspecified), the AC40 was 4.62 µM and 7.82 µM. `COc1ccc(CN(C)C[C@H]2Oc3ccc(NC(=O)Nc4ccc(F)cc4)cc3CC(=O)N([C@@H](C)CO)C[C@@H]2C)cc1`: the AC40 was > 16 µM (inactive). The result for `COc1ccccc1NC(=S)NCc1ccccc1Cl` reads 7.43 µM; that for `Cc1cc(C)c(NC(=O)C2CCCN2C(=O)NC2CCCCC2)c(C)c1` (stereo unspecified), 10.4 µM.

For the molecule `CCNC(=O)C[C@H]1CC[C@H](NC(=O)NC2CCCCC2)[C@@H](CO)O1`, the AC40 is > 15 µM (inactive). The figure for `O=C(Nc1ccccc1N1CCOCC1)c1cccc([N+](=O)[O-])c1` is > 7.5 µM (inactive).

With `COC(=O)C1=C(C)N(CC(C)C)C(=S)NC1c1ccc(F)cc1` (stereo unspecified), the AC40 is 3.52 µM. Regarding `COC(=O)C1=C(C)N(Cc2ccccc2)C(=O)N[C@H]1c1cccc(F)c1`, the AC40 was > 15 µM (inactive). The figure for `S=C(Nc1cccc(Cl)c1)Nc1ccccc1Oc1ccccc1` is > 15 µM (inactive). Consider `CCCNC(C)C(=O)Nc1ccccc1C` (stereo unspecified), for which the AC40 was > 15 µM (inactive).

As to `O=C(NC(=S)Nc1ccccc1N1CCOCC1)c1cccc([N+](=O)[O-])c1`, the AC40 was 5.69 µM.

The values above are taken from PubChem BioAssay AID687000 (Broad Institute, 2013).
